Assay results: ChEMBL document CHEMBL4806962, “Methods and Compositions for Treating Cancer” (2020)
pEC50: −log10 of the molar value. Active and inactive are the calls of the source. The rule behind the calls is not given here.

tested on: PBMC; test: Effects of compound on IL-2 production in anti-CD3/CD28-stimulated human PBMCs assessed as increase in IL-2 level after 2 days by ELISA; type: functional, tissue-based; conditions: dose 1-10 µM, time 2.0 day

SMILES	Activity
O=C(c1ccccc1)N1CCN(c2cc(N3CCCCC3)c(F)cc2[N+](=O)[O-])CC1	Dose-Dependent Effect

tested on: Splenocyte; test: Effects of compound on IL-2 production in anti-CD3/CD28-stimulated GPR174 knock out mouse spleenocytes assessed as fold increase in IL-2 level at 0.3 uM after 2 days in presence of NECA; type: functional, cell-based; conditions: time 2.0 day

SMILES	Activity
O=C(c1ccccc1)N1CCN(c2cc(N3CCCCC3)c(F)cc2[N+](=O)[O-])CC1	inactive

tested on: Splenocyte; test: Effects of compound on IL-2 production in anti-CD3/CD28-stimulated wild type mouse spleenocytes assessed as fold increase in IL-2 level at 0.3 uM after 2 days in presence of […] and NECA; type: functional; conditions: time 2 day

SMILES	fold change (FC)
O=C(c1ccccc1)N1CCN(c2cc(N3CCCCC3)c(F)cc2[N+](=O)[O-])CC1	4.9

molecular target: T1, Probable G-protein coupled receptor 174 (Homo sapiens, UniProt Q9BXC1); test: Antagonist activity at human GPR174 by CRA; type: functional; conditions: not given
T1 sequence (Q9BXC1 whole entry): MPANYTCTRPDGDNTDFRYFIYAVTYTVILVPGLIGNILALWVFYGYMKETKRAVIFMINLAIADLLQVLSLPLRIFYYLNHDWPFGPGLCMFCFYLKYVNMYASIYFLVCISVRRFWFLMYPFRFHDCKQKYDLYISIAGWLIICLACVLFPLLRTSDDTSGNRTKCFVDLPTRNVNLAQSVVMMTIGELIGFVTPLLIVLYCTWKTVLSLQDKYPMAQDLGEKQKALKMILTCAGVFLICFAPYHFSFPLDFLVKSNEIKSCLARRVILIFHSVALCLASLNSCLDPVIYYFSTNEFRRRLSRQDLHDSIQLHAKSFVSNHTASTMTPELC

pEC50	SMILES
6.30	Cc1ccccc1Nc1nnc(-c2ccc(C)c(S(N)(=O)=O)c2)c2ccccc12

tested on: Splenocyte; test: Effects of compound on IL-2 production in anti-CD3/CD28-stimulated wild type mouse spleenocytes assessed as fold increase in IL-2 level at 0.3 uM after 2 days in presence of NECA; type: functional; conditions: time 2 day

SMILES	fold change (FC)
O=C(c1ccccc1)N1CCN(c2cc(N3CCCCC3)c(F)cc2[N+](=O)[O-])CC1	1.7

tested on: not listed separately; test: Effects of compound on IL-2 production in anti-CD3/CD28-stimulated human PBMCs assessed as fold increase in IL-2 level at 10 uM after 24 hrs by ELISA; type: functional, PBMC; conditions: not given

SMILES	fold change (FC)
Nc1ncnc2c1ncn2[C@@H]1O[C@H](COP(=O)(O)CP(=O)([O-])O)[C@@H](O)[C@H]1O.[Na+]	1.5

molecular target: T1, Probable G-protein coupled receptor 174; test: Inverse agonist activity at human GPR174 assessed as fold decrease in Gs signalling activity by CRA; type: functional; conditions: filed as inverse agonist

SMILES	fold change (FC)
O=C1CCCC2=C1C(c1ccc(OC(F)(F)F)cc1)C1=C(N2)c2ccccc2C1=O (stereo unspecified)	1.2
CC(=O)N1CCN(c2cc(N3CCCCC3)c(F)cc2[N+](=O)[O-])CC1	0.3
O=C1CCCC2=C1C(c1ccc(Oc3ccccc3)cc1)C1=C(N2)c2ccccc2C1=O (stereo unspecified)	1
O=C1CCCC2=C1C(c1ccc(-c3ccccc3)cc1)C1=C(N2)c2ccccc2C1=O (stereo unspecified)	2.5
O=C1CCCC2=C1C(c1ccc(OC(F)F)cc1)C1=C(N2)c2ccccc2C1=O (stereo unspecified)	1.2
Cc1nnc(-c2ccc(C3C4=C(CCCC4=O)NC4=C3C(=O)c3ccccc34)cc2)o1 (stereo unspecified)	2.8
CCc1ccc(C2C3=C(CCCC3=O)NC3=C2C(=O)c2ccccc23)cn1 (stereo unspecified)	2
CCCCCCOc1ccc(C2C3=C(CCCC3=O)NC3=C2C(=O)c2ccccc23)cc1 (stereo unspecified)	0.5
CCCOc1ccc(C2C3=C(CCCC3=O)NC3=C2C(=O)c2ccccc23)cc1 (stereo unspecified)	1
C=CCOc1ccc(C2C3=C(CCCC3=O)NC3=C2C(=O)c2ccccc23)cc1 (stereo unspecified)	1.2
CCCCOc1ccc(C2C3=C(CCCC3=O)NC3=C2C(=O)c2ccccc23)cc1 (stereo unspecified)	1.2
O=C1CCCC2=C1C(c1ccc(OCCO)cc1)C1=C(N2)c2ccccc2C1=O (stereo unspecified)	4.4
O=C1CCCC2=C1C(c1ccc(Cl)cc1)C1=C(N2)c2ccccc2C1=O (stereo unspecified)	3
CCc1ccc(C2C3=C(CCCC3=O)NC3=C2C(=O)c2ccccc23)cc1 (stereo unspecified)	0.5
C=C(C)COc1ccc(NC(=O)Nc2ccccc2)cc1	0.5
COc1ccc(C2C3=C(CCCC3=O)NC3=C2C(=O)c2ccccc23)cc1 (stereo unspecified)	1
CCOc1ccc(C2C3=C(CCCC3=O)NC3=C2C(=O)c2ccccc23)cc1 (stereo unspecified)	0.4

Continued, values first:

fold change (FC)	SMILES
0.6	CCOc1ccc(C2C3=C(CCCC3=O)NC3=C2C(=O)c2ccccc23)cn1 (stereo unspecified)
0.5	CCC(=O)N1CCN(c2cc(N3CCCCC3)c(F)cc2[N+](=O)[O-])CC1
2.6	O=C1CCCC2=C1C(c1ccc3c(c1)OCCO3)C1=C(N2)c2ccccc2C1=O (stereo unspecified)
0.4	CCC(=O)N1CCN(c2cc(N3CCC(C)CC3)c(F)cc2[N+](=O)[O-])CC1
3.3	CS(=O)(=O)c1ccc(C2C3=C(CCCC3=O)NC3=C2C(=O)c2ccccc23)cc1 (stereo unspecified)
2.7	O=C1CCCC2=C1C(c1ccc([N+](=O)[O-])cc1)C1=C(N2)c2ccccc2C1=O (stereo unspecified)
1.1	Cc1ccc(S(=O)(=O)N2CCN(c3cc(N4CCC(C)CC4)c(F)cc3[N+](=O)[O-])CC2)cc1
0.5	O=[N+]([O-])c1cc(F)c(N2CCCCC2)cc1N1CCN(S(=O)(=O)c2ccccc2)CC1
1	O=C1CCCC2=C1C(c1ccc(OC3CCCC3)cc1)C1=C(N2)c2ccccc2C1=O (stereo unspecified)
0.8	CC(C)C(=O)N1CCN(c2cc(N3CCCCC3C)c(F)cc2[N+](=O)[O-])CC1 (stereo unspecified)
1.7	Cc1ccc(S(=O)(=O)N2CCN(c3cc(N4CCCCC4)c(F)cc3[N+](=O)[O-])CC2)cc1
0.3	CCOC(=O)N1CCN(c2cc(N3CCCCC3)c(F)cc2[N+](=O)[O-])CC1
0.4	CCOC(=O)N1CCN(c2cc(N3CCC(C)CC3)c(F)cc2[N+](=O)[O-])CC1
1	CCOC(=O)N1CCN(c2cc(N3CCCCC3C)c(F)cc2[N+](=O)[O-])CC1 (stereo unspecified)
0.4	CC1CCN(c2cc(N3CCN(C(=O)c4cccs4)CC3)c([N+](=O)[O-])cc2F)CC1
0.8	CC(=O)N1CCN(c2cc(N3CCC(C)CC3)c(F)cc2[N+](=O)[O-])CC1
1.6	CCOc1cccc(C2C3=C(CCCC3=O)NC3=C2C(=O)c2ccccc23)c1 (stereo unspecified)
1.3	CC(C)(C)Oc1ccc(C2C3=C(CCCC3=O)NC3=C2C(=O)c2ccccc23)cc1 (stereo unspecified)
1.2	CC(C)c1ccc(C2C3=C(CCCC3=O)NC3=C2C(=O)c2ccccc23)cc1 (stereo unspecified)
0.9	CCCC(=O)N1CCN(c2cc(N3CCCCC3)c(F)cc2[N+](=O)[O-])CC1
1.8	O=[N+]([O-])c1cc(F)c(N2CCCCCC2)cc1N1CCN(S(=O)(=O)c2ccccc2)CC1
0.6	CC(C)Oc1ccc(C2C3=C(CCCC3=O)NC3=C2C(=O)c2ccccc23)cc1 (stereo unspecified)
0.3	O=C(c1ccccc1)N1CCN(c2cc(N3CCCCC3)c(F)cc2[N+](=O)[O-])CC1
